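Protocol summary: plate cells (96-well), add compound at 5 concentrations, incubate 48 h, interpolate endpoints linearly. TGI: concentration producing complete growth inhibition.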
Tested on: P388/ADR leukemia
Assay: NCI tumour cell line growth inhibition, 48 h

## COc1cccc2c1C(=O)c1c(O)c3c(c(O)c1C2=O)C[C@@](O)(C(=O)CO)C[C@@H]3OC1CC(N)CC(C)O1 (stereo partly specified)
  TGI: 2960 nM

From PubChem BioAssay (NCI)
